Consider 23 compounds from patent US7135466B2 (Kirin Beer Kabushiki Kaisha, priority 1999, dated 2006).

pIC50: −log10 of the molar value.

The target of one experiment is T1, c-kit (Homo sapiens, UniProt P10721).
T1 construct: MO7e (human megakaryocytic leukemia cell line) which had been arrested for 20 hr; endogenous in cells; host or cells: MO7e human megakaryocytic leukemia cell line
In words: Inhibitory activity against c-kit autophosphorylation (MO7e cells, h-SCF). It counts as cell-based. To be noted: for inhibition at 1 µM: Mo7e, figure in parentheses in −( ), at 1000 nM; for pIC50: MO7e cells, h-SCF 50 ng/ml, read-out: c-kit IC50. The gist of the method: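 MO7e human megakaryocytic leukemia cells, arrested 20 hr, treated with compound 1 hr, then stimulated with 50 ng/ml h-SCF for 5 min and lysed. Lysates captured on immobilized anti-phosphotyrosine antibody, detected with anti-c-kit primary and HRP secondary antibody; absorbance at 450 nm.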

For the next experiment, the target named is T2, PDGF-Ra (Homo sapiens, UniProt P16234).
T2 construct: host or cells: G-292 human osteosarcoma cells
In words: Inhibitory activity against PDGF-Ra phosphorylation by PDGF-AA stimulation using G292. The format is cell-based. To be noted: for pIC50: Pharmacological Test Example 1, > means inhibition at indicated concentration not more than 50%, < and << not less than 50%, read-out: PDGF (E) IC50. In a few lines: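 Cells seeded in low-serum medium are exposed to test compound for one hour, then PDGF-AA (50 ng/ml) triggers receptor phosphorylation for 5 min at 37 °C. Phospho-PDGF-Ra in solubilized cells is quantified by anti-phosphotyrosine capture ELISA at 450 nm.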

By inhibition is commonly meant the share of the control response that was lost under treatment. By pIC50 is commonly meant −log10 of the IC50, conventionally taken in molar units.

T2 sequence (P16234 24-1089): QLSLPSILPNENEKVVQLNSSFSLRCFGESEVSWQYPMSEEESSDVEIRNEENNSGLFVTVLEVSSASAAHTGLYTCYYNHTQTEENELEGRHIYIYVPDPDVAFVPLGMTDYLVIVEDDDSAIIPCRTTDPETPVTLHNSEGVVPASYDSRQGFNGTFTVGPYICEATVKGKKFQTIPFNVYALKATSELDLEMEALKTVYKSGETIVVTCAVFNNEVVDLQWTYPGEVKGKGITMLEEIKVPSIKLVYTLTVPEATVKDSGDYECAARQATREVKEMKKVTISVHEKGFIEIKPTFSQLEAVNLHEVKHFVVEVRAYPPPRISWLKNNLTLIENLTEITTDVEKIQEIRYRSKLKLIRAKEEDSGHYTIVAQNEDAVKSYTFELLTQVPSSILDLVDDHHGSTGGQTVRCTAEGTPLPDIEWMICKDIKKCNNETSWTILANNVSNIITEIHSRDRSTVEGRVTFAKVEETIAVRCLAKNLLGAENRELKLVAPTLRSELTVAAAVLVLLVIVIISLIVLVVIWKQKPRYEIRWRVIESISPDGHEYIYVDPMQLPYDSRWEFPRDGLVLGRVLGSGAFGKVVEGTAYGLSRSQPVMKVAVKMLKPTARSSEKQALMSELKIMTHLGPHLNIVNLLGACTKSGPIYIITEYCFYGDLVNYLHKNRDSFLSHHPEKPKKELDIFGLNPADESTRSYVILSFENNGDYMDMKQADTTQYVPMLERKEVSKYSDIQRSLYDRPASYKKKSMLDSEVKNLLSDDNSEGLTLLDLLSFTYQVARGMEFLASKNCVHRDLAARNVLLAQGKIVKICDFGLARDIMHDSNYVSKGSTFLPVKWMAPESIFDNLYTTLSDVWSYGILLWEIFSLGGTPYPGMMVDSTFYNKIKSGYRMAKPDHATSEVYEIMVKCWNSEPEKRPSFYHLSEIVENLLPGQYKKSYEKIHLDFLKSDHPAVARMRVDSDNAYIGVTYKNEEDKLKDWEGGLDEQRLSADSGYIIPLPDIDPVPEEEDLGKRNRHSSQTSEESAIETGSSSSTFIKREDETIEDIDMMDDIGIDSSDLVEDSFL
T1 sequence (P10721 26-976): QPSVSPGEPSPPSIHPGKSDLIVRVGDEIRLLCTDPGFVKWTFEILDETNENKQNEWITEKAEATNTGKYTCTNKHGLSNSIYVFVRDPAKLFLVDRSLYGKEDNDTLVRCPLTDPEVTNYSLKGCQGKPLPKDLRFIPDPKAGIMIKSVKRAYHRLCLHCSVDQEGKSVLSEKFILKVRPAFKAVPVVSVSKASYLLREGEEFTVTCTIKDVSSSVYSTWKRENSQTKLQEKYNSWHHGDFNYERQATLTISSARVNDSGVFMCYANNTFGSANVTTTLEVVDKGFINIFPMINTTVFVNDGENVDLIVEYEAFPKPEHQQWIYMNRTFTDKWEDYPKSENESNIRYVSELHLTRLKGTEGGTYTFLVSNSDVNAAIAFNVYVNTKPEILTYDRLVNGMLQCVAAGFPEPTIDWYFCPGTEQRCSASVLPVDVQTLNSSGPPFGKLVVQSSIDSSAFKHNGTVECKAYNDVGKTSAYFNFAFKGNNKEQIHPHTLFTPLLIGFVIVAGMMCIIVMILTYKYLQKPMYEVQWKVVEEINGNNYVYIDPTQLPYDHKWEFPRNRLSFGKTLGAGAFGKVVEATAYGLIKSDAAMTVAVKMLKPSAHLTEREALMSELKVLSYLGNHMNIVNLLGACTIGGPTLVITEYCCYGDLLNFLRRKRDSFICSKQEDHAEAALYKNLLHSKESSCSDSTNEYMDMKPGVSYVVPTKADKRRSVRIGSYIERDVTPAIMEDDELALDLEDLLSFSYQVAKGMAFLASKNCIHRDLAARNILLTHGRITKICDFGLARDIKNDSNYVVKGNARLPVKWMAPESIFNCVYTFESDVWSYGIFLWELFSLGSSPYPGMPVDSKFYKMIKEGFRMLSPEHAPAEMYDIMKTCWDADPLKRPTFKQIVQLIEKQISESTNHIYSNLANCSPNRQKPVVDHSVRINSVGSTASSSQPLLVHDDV

For `COc1cc2ncnc(Oc3ccc(NC(=O)OCCCSc4ccc(C(C)(C)C)cc4)c(Cl)c3)c2cc1OC` [Example 76, 3-{[4-(Tert-butyl)phenyl]sulfanyl}propyl N-{2-chloro-4-[(6,7-dimethoxy-4-quinazolinyl)oxy]phenyl}carbamate], the inhibition at 1 µM on c-kit came to 14%. In addition, the inhibition at 0.1 µM on PDGF-Ra (G292, figure in parentheses in >100( ), at 100 nM, read-out: PDGF (E) inhibition (%) at 100 nM) was 37%. In addition, the pIC50 on PDGF-Ra was under 7.00.

For `COc1cc2nccc(Oc3ccc(NC(=O)OCCCSc4ccc(Cl)cc4C)cc3)c2cc1OC` [Example 77, 3-[(4-Chloro-2-methylphenyl)sulfanyl]propyl N-{4-[(6,7-dimethoxy-4-quinolyl)oxy]phenyl}carbamate], the pIC50 at c-kit was 7.00; on PDGF-Ra, over 8.00.

As to `COc1cc2nccc(Oc3ccc(NC(=O)OCCCSc4ccc(Cl)cc4C)c(C)c3C)c2cc1OC` [Example 78, 3-[(4-Chloro-2-methylphenyl)sulfanyl]propyl N-{4-[(6,7-dimethoxy-4-quinolyl)oxy]-2,3-dimethylphenyl}carbamate], the negative logarithm of the IC50 (pIC50) is 6.89 at c-kit and 7.80 on PDGF-Ra.

As for `COc1cc2nccc(Oc3cc(C)c(NC(=O)OCCCSc4ccc(Cl)cc4C)cc3C)c2cc1OC` [Example 79, 3-[(4-Chloro-2-methylphenyl)sulfanyl]propyl N-{4-[(6,7-dimethoxy-4-quinolyl)oxy]-2,5-dimethylphenyl}carbamate], the values for the pIC50 at c-kit and at PDGF-Ra were 6.91 and 7.74, respectively.

On to `COc1cc2ncnc(Oc3ccc(NC(=O)OCCCSc4ccc(Cl)cc4C)cc3)c2cc1OC` [Example 80], for which the results for the pIC50 on c-kit and at PDGF-Ra were 6.86 and 7.92, respectively.

In the case of `COc1cc2ncnc(Oc3ccc(NC(=O)OCCCSc4ccc(Cl)cc4C)c(Cl)c3)c2cc1OC` [Example 81, 3-[(4-Chloro-2-methylphenyl)sulfanyl]propyl N-{2-chloro-4-[(6,7-dimethoxy-4-quinazolinyl)oxy]phenyl}carbamate], the results for the pIC50 at c-kit and on PDGF-Ra were 6.39 and 7.92, respectively.

`COc1cc2nccc(Oc3ccc(NC(=O)OCCc4cccc(C(F)(F)F)c4)cc3)c2cc1OC` [Example 82, 3-(Trifluoromethyl)phenethyl N-{4-[(6,7-dimethoxy-4-quinolyl)oxy]phenyl}carbamate]: the pIC50 at c-kit was 6.75; at PDGF-Ra, 8.00.

On to `COc1cc2nccc(Oc3ccc(NC(=O)OCCc4cccc(C(F)(F)F)c4)c(C)c3C)c2cc1OC` [Example 83, 3-(Trifluoromethyl)phenethyl N-{4-[(6,7-dimethoxy-4-quinolyl)oxy]-2,3-dimethylphenyl]carbamate], for which the pIC50 on c-kit is 6.60; on PDGF-Ra it was 7.80.

Regarding `COc1cc2nccc(Oc3cc(C)c(NC(=O)OCCc4cccc(C(F)(F)F)c4)cc3C)c2cc1OC` [Example 84, 3-(Trifluoromethyl)phenethyl N-{4-[(6,7-dimethoxy-4-quinolyl)oxy]-2,5-dimethylphenyl}carbamate], the pIC50 at c-kit was 6.40; at PDGF-Ra it was 7.57.

On to `COc1cc2ncnc(Oc3ccc(NC(=O)OCCc4cccc(C(F)(F)F)c4)cc3)c2cc1OC` [Example 85, 3-(Trifluoromethyl)phenethyl N-{4-[(6,7-dimethoxy-4-quinazolinyl)oxy]phenyl}carbamate], for which the pIC50 was 6.79 at c-kit and over 8.00 on PDGF-Ra.

On to `COc1cc2ncnc(Oc3ccc(NC(=O)OCCc4cccc(C(F)(F)F)c4)c(Cl)c3)c2cc1OC` [Example 86], for which the figures for the pIC50 on c-kit and on PDGF-Ra were 6.07 and 7.89, respectively.

For `COc1cc2nccc(Oc3ccc(NC(=O)OC(C)c4cccc(C(F)(F)F)c4)cc3)c2cc1OC` (centres unmarked) [Example 87, 1-[3-(Trifluoromethyl)phenyl]ethyl N-{4-[(6,7-dimethoxy-4-quinolyl)oxy]phenyl}carbamate], the pIC50 was 6.22 at c-kit and over 8.00 on PDGF-Ra.

As for `COc1cc2nccc(Oc3ccc(NC(=O)OC(C)c4cccc(C(F)(F)F)c4)c(C)c3C)c2cc1OC` (centres unmarked) [Example 88, 1-[3-(Trifluoromethyl)phenyl]ethyl N-{4-[(6,7-dimethoxy-4-quinolyl)oxy]-2,3-dimethylphenyl}carbamate], the inhibition at 1 µM at c-kit worked out at 45%. Also, the pIC50 at PDGF-Ra is 7.72.

For `COc1cc2nccc(Oc3cc(C)c(NC(=O)OC(C)c4cccc(C(F)(F)F)c4)cc3C)c2cc1OC` (centres unmarked) [Example 89, 1-[3-(Trifluoromethyl)phenyl]ethyl N-{4-[(6,7-dimethoxy-4-quinolyl)oxy]-2,5-dimethylphenyl}carbamate], on c-kit, the inhibition at 1 µM came to 35%. Also, the pIC50 at PDGF-Ra was 7.85.

`COc1cc2ncnc(Oc3ccc(NC(=O)OC(C)c4cccc(C(F)(F)F)c4)cc3)c2cc1OC` (centres unmarked) [Example 90, 1-[3-(Trifluoromethyl)phenyl]ethyl N-{4-[(6,7-dimethoxy-4-quinazolinyl)oxy]phenyl}carbamate]: the pIC50 at c-kit is 6.21; at PDGF-Ra, over 8.00.

As to `COc1cc2ncnc(Oc3ccc(NC(=O)OC(C)c4cccc(C(F)(F)F)c4)c(Cl)c3)c2cc1OC` (centres unmarked) [Example 91, 1-[3-(Trifluoromethyl)phenyl]ethyl N-{2-chloro-4-[(6,7-dimethoxy-4-quinazolinyl)oxy]phenyl}carbamate], the inhibition at 1 µM on c-kit amounted to 20%. Also, the pIC50 on PDGF-Ra is 7.85.

In the case of `COc1cc2nccc(Oc3ccc(NC(=O)OC(C)c4cc(F)c(F)cc4F)cc3)c2cc1OC` (centres unmarked) [Example 92, 1-(2,4,5-Trifluorophenyl)ethyl N-{4-[(6 7-dimethoxy-4-quinolyl)oxy]phenyl}carbamate], the pIC50 is 6.17 on c-kit and over 8.00 at PDGF-Ra.

Turning to `COc1cc2nccc(Oc3ccc(NC(=O)OC(C)c4cc(F)c(F)cc4F)c(C)c3C)c2cc1OC` (centres unmarked) [Example 93, 1-(2,4,5-Trifluorophenyl)ethyl N-{4-[(6,7-dimethoxy-4-quinolyl)oxy]-2,3-dimethylphenyl}carbamate], the pIC50 at c-kit is 6.22; on PDGF-Ra, 7.77.

As for `COc1cc2nccc(Oc3cc(C)c(NC(=O)OC(C)c4cc(F)c(F)cc4F)cc3C)c2cc1OC` (centres unmarked) [Example 94, 1-(2,4,5-Trifluorophenyl)ethyl N-{4-[(6,7-dimethoxy-4-quinolyl)oxy]-2,5-dimethylphenyl}carbamate], the inhibition at 1 µM on c-kit turned out to be 31%. For the same compound, at PDGF-Ra, the pIC50 is 7.51.

Turning to `COc1cc2ncnc(Oc3ccc(NC(=O)OC(C)c4cc(F)c(F)cc4F)cc3)c2cc1OC` (centres unmarked) [Example 95, 1-(2,4,5-Trifluorophenyl)ethyl N-{4-[(6,7-dimethoxy-4-quinazolinyl)oxy]phenyl}carbamate], the pIC50 on c-kit was 6.02; at PDGF-Ra, 7.80.

Take `COc1cc2ncnc(Oc3ccc(NC(=O)OC(C)c4cc(F)c(F)cc4F)c(Cl)c3)c2cc1OC` (centres unmarked) [Example 96, 1-(2,4,5-Trifluorophenyl)ethyl N-{2-chloro-4-[(6,7-dimethoxy-4-quinazolinyl)oxy]phenyl}carbamate]: the inhibition at 1 µM at c-kit is 13%. Moreover, the pIC50 at PDGF-Ra is 7.42.

With `COc1cc2nccc(Oc3ccc(NC(=O)OC(C)c4cccc(F)c4)cc3)c2cc1OC` (centres unmarked) [Example 97, 1-(3-Fluorophenyl)ethyl N-{4-[(6,7-dimethoxy-4-quinolyl)oxy]phenyl}carbamate], the results for the pIC50 on c-kit and at PDGF-Ra were 6.60 and over 8.00, respectively.

As for `COc1cc2nccc(Oc3ccc(NC(=O)OC(C)c4cccc(F)c4)c(C)c3C)c2cc1OC` (centres unmarked) [Example 98, 1-(3-Fluorophenyl)ethyl N-{4-[(6,7-dimethoxy-4-quinolyl)oxy]-2,3-dimethylphenyl}carbamate], the results for the pIC50 at c-kit and on PDGF-Ra were 6.82 and over 8.00, respectively.
